Experiment: gradient 5% acetonitrile 3 min, to 50% in 2 min, to 85% in 15 min, held 3 min, 100 µL/min
Conditions: column: Zorbax Extend-C18 2.1 x 50 mm; eluents: water / acetonitrile, 0.1% formic acid
Outline: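 Mixtures of ~100 pure standards were chromatographed on a Zorbax Extend-C18 column (2.1 × 50 mm, 1.8 μm) at 100 μL/min using water and acetonitrile, each with 0.1% formic acid. Detection used a quadrupole time-of-flight mass spectrometer in positive and negative ionization mode, and data collection spanned 3 months. Retention time was obtained from adduct peaks picked computationally and each checked manually.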

| RP-LC retention time [s] | Structure (SMILES) |
| --- | --- |
| 1020 | Cn1cc(-c2nc(C(=O)Nc3cccc(F)c3)cs2)c2cccnc21 |
| 910 | Cc1ccc(CN2CCN(C3CCN(S(=O)(=O)c4cc(F)ccc4F)CC3)C(=O)C2=O)cc1 |
| 616 | CCCn1nc2n(c1=O)CCN(Cc1cn[nH]c1-c1cc(OC)ccc1OC)C2 |
| 577 | Cc1ccc2cc(CCC(=O)NCCCN3CCOCC3)c(=O)[nH]c2c1 |
| 656 | CCOCCCNC(=O)C1CCN(S(=O)(=O)c2ccc3c(c2)CCCC(=O)N3)CC1 |
| 692 | CC(C)c1nncn1C1CCN(S(=O)(=O)c2ccccc2F)CC1 |
| 1150 | CCC1CCCCN1C(=O)CN1CCCN(Cc2cc(C)ccc2C)S1(=O)=O (centres undefined) |
| 814 | Cc1ccc2nc(NC(=O)C3CCN(S(=O)(=O)c4ccc5[nH]c(=O)ccc5c4)CC3)sc2c1 |
| 749 | COc1ccc(CNC(=O)c2cn3cc(Cl)ccc3n2)cc1OC |
| 705 | CN(C)c1ccc(C(=O)NC2CCN(c3cc(-c4ccccc4)[nH]n3)C2)cc1 (centres undefined) |
| 730 | Cc1cc2c(cc1S(=O)(=O)N1CCCC1C(=O)NC1CCCC1)OC(C)C(=O)N2 (centres undefined) |
| 755 | CSc1ccc(CNC(=O)C2CCCN(c3cnc4nc(C)c(C)nc4c3)C2)cc1 (centres undefined) |
| 663 | CC12CC(NC(=O)N1c1cccc(C(=O)N3CCOCC3)c1)c1ccccc1O2 (centres undefined) |
| 762 | O=C(Nc1ccc2c(c1)OCCO2)NC1CCN(c2ccc(F)cc2)C1=O (centres undefined) |
| 798 | CSc1cccc(NC(=O)C2CCCN(c3nnc(C)c4c(C)n(-c5ccccc5)nc34)C2)c1 (centres undefined) |
| 636 | CN1CCN(C(c2ccncc2)c2c(NC(=O)c3ccco3)sc3c2CCCC3)CC1 (centres undefined) |
| 1290 | CC(C)[C@@H]1CC[C@@H](C)C[C@@H]1P(=O)(c1ccccc1)c1ccccc1 |
| 595 | CC(C)CNC(=O)Cc1cn(C)c2ncccc12 |
| 902 | Cc1nc(-c2ccccc2)nn1C1CCN(S(=O)(=O)c2ccc(Cl)s2)C1 (centres undefined) |
| 851 | COc1ccccc1NC(=O)Cn1nc2cc(C)nc(-c3ccc(F)cc3)n2c1=O |
| 666 | Cc1ccsc1C(=O)Nc1cccn2cnnc12 |
| 718 | Cc1nn(C)c(=O)c2cc(S(=O)(=O)NCc3ccco3)cn12 |

| RP-LC retention time [s] | Structure (SMILES) |
| --- | --- |
| 670 | CC(=O)NCC(=O)NCc1nn(CC(C)C)c2ccccc12 |
| 940 | CCCCN(Cc1ccco1)c1nc(-c2ccc(OC)cc2)nc2ccccc12 |
| 1160 | O=c1c2cnn(-c3ccc(F)cc3)c2ncn1Cc1nc(-c2ccc(OC(F)(F)F)cc2)no1 |
| 918 | COC(=O)C1=C(C)NC2=C(C(=O)c3ccccc32)C1c1cccs1 (centres undefined) |
| 626 | Cc1cccc(NC(=O)CN2CCc3[nH]c4c(C)c(C)ccc4c(=O)c3C2)c1 |
| 996 | CCc1ccc(S(=O)(=O)c2cnc(N3CCN(c4ccc(OC)cc4)CC3)nc2N)cc1 |
| 609 | O=C(CSc1ccc(N2CCC(C(=O)NC3CC3)CC2)nn1)NCc1ccc(F)cc1 |
| 791 | O=C(COc1ccc(F)cc1)N1CCC(c2noc(C3CC3)n2)C1 (centres undefined) |
| 1180 | O=S(=O)(c1ccccc1Cl)N1CCc2nc(-c3ccc(Cl)cc3)ncc2C1 |
| 1150 | COc1ccc(C)cc1NC(=O)Cn1nc2cc(C)nc(Nc3ccc(C)cc3)n2c1=O |
| 720 | C#CCCNC(=O)c1ccc(C)c(C)c1 |
| 1020 | Cc1nc(C)c(C(=O)N2CCc3cc(-c4csc(C5CC5)n4)ccc32)s1 |
| 889 | CC(C)c1nc(C2Cc3ccccc3N2C(=O)NCc2ccco2)no1 (centres undefined) |
| 809 | CC(C)CNC(=O)C1CCN(S(C)(=O)=O)c2cc(Cl)ccc2O1 (centres undefined) |
| 1030 | Cc1ccc(C)c(-c2csc(Nc3ccc(S(=O)(=O)Nc4nc(C)cc(C)n4)cc3)n2)c1 |
| 607 | CCOc1ccc2ncc(C#N)c(Nc3cc(OC)c(OC)c(OC)c3)c2c1 |
| 1160 | Cc1ccc(Oc2nccnc2N2CCCC(C(=O)NC(C)c3ccc(C)cc3C)C2)cc1 (centres undefined) |
| 581 | O=C(NCc1ccc(N2CCOCC2)nc1)c1ccccc1Br |
| 609 | O=C(CCNS(=O)(=O)c1ccc(Cl)cc1)N1CCN(c2ccccn2)CC1 |
| 617 | CCCNC(=O)c1ccc2nc(CCc3ccc(NC(=O)CCC)cc3)[nH]c2c1 |
| 949 | O=C(Cc1ccccc1)N1CCCC1c1nc(-c2ccccc2)no1 (centres undefined) |
| 920 | CC(C)(C)CC(C)(C)NC(=O)C1CCN(C(=O)c2ccccc2F)CC1 |

| RP-LC retention time [s] | Structure (SMILES) |
| --- | --- |
| 966 | O=C(Nc1ccc2c(c1)OCCO2)N1c2ccccc2CC1c1nc(C2CC2)no1 (centres undefined) |
| 630 | O=C(NC1CC1)C1CCN(C(=O)c2ncn3c2COC(c2ccc(F)cc2)C3)CC1 (centres undefined) |
| 875 | CCc1noc(-c2ccc(SCC(=O)N3CCCCC3)nc2)n1 |
| 604 | COC[C@@H]1CN(Cc2cn[nH]c2-c2ccccc2)C[C@H]1c1ccccn1 |
| 1020 | Cc1cc(C)c2c(-n3cccc3)nn(CC(=O)NCc3cccc(Br)c3)c2n1 |
| 783 | CCCc1c(C(=O)NCC2CCCO2)nnn1-c1ccc(OC)cc1 (centres undefined) |
| 748 | COc1ccc(CN2CN=C(Nc3nc(C)c4cc(OC)ccc4n3)NC2)cc1 |
| 671 | CCC1CN2C=NC(N3CCN(C(=O)Nc4cccc(F)c4C)CC3)=CC2=N1 (centres undefined) |
| 1160 | Cc1nc(CC(=O)Nc2nc(-c3ccc(-c4ccccc4)cc3)cs2)cs1 |
| 796 | CCCN(CC1CCOC1)C(=O)Nc1cc(C)ccc1C (centres undefined) |
| 1030 | Cc1nc(-c2cc(S(=O)(=O)NCc3ccc(Br)cc3)c(C)s2)cs1 |
| 672 | Nc1ncnc2c1cnn2C1CCCCC1 |
| 1240 | Cc1cc(C)cc(NC(=O)Cn2nc(N3CCCC(C)C3)c3ccccc3c2=O)c1 (centres undefined) |
| 978 | CCC(c1cccs1)N1C(=O)[C@H]2CN(S(=O)(=O)c3ccc(F)c(C)c3)C[C@H]2C1=O (some centres undefined) |
| 813 | Cc1cc2nn(CC(=O)Nc3cccc(Cl)c3)c(=O)n2c(N2CCCC2)n1 |
| 779 | Fc1ccccc1N1CCN(c2ncc3c(n2)CCN(Cc2ccc4c(c2)OCCO4)C3)CC1 |
| 683 | O=C(Nc1ccc(OCC(F)(F)C(F)F)cc1)c1ccncc1 |
| 1130 | CCOc1ccc(NC(=O)c2cc3ccccc3cc2O)cc1 |
| 708 | O=C(Cn1c(=O)ccc2cc(S(=O)(=O)N3CCCC3)ccc21)N1CCN(c2ncccn2)CC1 |
| 775 | CCNC(=O)N1CCCC(c2cccc(C(=O)NCc3ccccc3C)c2)C1 (centres undefined) |
| 846 | Cc1ccc(-n2c(=O)c3c(cc(C)n3C)n(CC(=O)Nc3ccccc3C)c2=O)cc1 |
| 731 | CC(C)(C)c1ccc(C(=O)NCCCn2ncccc2=O)cc1 |

| RP-LC retention time [s] | Structure (SMILES) |
| --- | --- |
| 1030 | CCc1csc(-c2ccc(N3CCN(C(=O)C4COc5ccccc5O4)CC3)nc2)n1 (centres undefined) |
| 622 | Cn1c(C2CCN(C(=O)Nc3ccccc3F)CC2)cc(=O)n2nccc12 |
| 804 | Cc1ccc(NC(=O)C2CCN(C(=O)C3Sc4ccccc4NC3=O)CC2)cc1F (centres undefined) |
| 961 | CCOC(=O)C1CCN(C(=O)c2nnc(-c3ccc(S(=O)(=O)N4CCCCC4)cc3)o2)CC1 |
| 1040 | CCOc1ccc(N2C(=O)C3N=NN(Cc4nc(-c5ccc(C)cc5)no4)C3C2=O)cc1 (centres undefined) |
| 558 | Cn1c(N2CCCC(C(=O)NCc3cccnc3)C2)cc(=O)n(C)c1=O (centres undefined) |
| 905 | O=C(Nc1ccc2c(c1)CCC2)C1CCc2nc(N3CCCCC3)ncc2C1 (centres undefined) |
| 822 | CC(=O)c1cccc(NC(=O)Cn2nc3c4cc(-c5ccccc5)nn4ccn3c2=O)c1 |
| 669 | CCN(CC)C(=O)Cn1nc2nc(Nc3ccc(F)cc3)ccn2c1=O |
| 904 | Cc1ccc2[nH]cc(CCNC(=O)COc3ccccc3)c2c1 |
| 578 | Cn1c(=O)c2cc(C(=O)N3CCN(c4ccccn4)CC3)sc2n(C)c1=O |
| 765 | CCCN(C)c1nccn2c(=O)n(CC(=O)Nc3ccc(C)c(Cl)c3)nc12 |
| 1160 | CCOC(=O)c1cc(C2CC2)nc2c1c(=O)n(Cc1cccc(F)c1)c(=O)n2C |
| 591 | COCCNC(=O)CCc1nc2ccccc2[nH]c1=O |
| 824 | COc1cc(-c2noc(-c3nn(-c4cccc(F)c4)ccc3=O)n2)cc(OC)c1OC |
| 642 | Cc1nc(CCNC(=O)[C@H]2CCCN2C(=O)c2cccc(F)c2)cs1 |
| 746 | COc1cccc(-c2ccc(=O)n(CCc3nc(-c4cccnc4)no3)n2)c1 |
| 652 | O=C(Nc1ccc(Br)cc1F)Nc1c(-c2ccncc2)nc2ccccn12 |
| 627 | CC(NC(=O)c1ccco1)c1nc2ccccc2n1CC(=O)N1CCCCC1 (centres undefined) |
| 1050 | COc1ccc(S(=O)(=O)N2CCc3nc(-c4ccc(F)cc4)ncc3C2)cc1 |

| Structure (SMILES) | RP-LC retention time [s] |
| --- | --- |
| COc1ccc2c(c1)C1(CCN(C(=O)c3ccc(F)cc3)C1)C(=O)N2 (centres undefined) | 714 |
| O=C(Cn1c(Cc2ccccc2)nc2ccccc21)N1CCOCC1 | 593 |
| O=C(Cn1c(=O)oc2ccccc21)N1[C@H]2CC[C@@H]1c1cnc(-c3ccc(F)cc3)nc1C2 | 912 |

Source: the METLIN SMRT retention time set (Domingo-Almenara et al. 2019)
